Experimental data as given in PMC3927474, “Whole body synthesis rates of DHA from α-linolenic acid are greater than brain DHA accretion and uptake rates in adult rats” (Journal of Lipid Research, 2014).

Legend:
[1] = Brain DHA uptake study: ^14C-DHA infusion; format: in vivo, rat; settings: for Brain DHA uptake rate: 5 min ^14C-DHA infusion, 15 wk diet
Procedure: At 15 weeks postweaning, a surgery was performed to implant a catheter into the jugular vein (described above). […] After 5 min of ^14C-DHA infusion rats were euthanized by high-energy head-focused microwave fixation (13.5 kW for 1.6 s). The brains were then removed, dissected sagittally and stored at −80°C until analysis.
A known portion of the plasma TLE was then added to a scintillation vial with 5 ml of scintillation cocktail (GE Healthcare Life Sciences, Baie d'Urfe, QC, Canada). Radioactivity was measured using liquid scintillation counting to determine the plasma AUC for radioactivity. For plasma samples drawn at time 0 s of the infusion, the unesterified lipids were isolated by TLC and quantified using GC-FID (described above).
Radioactivity was quantified by a Packard TRI-CARB2900TR liquid scintillation analyzer (Packard, Meriden, CT) with a detector efficiency of 48.8%. Radioactivity was expressed in disintegrations per minute; then converted to nCi.
Brain hemispheres were homogenized and lipids extracted as described above. A known portion of the TLE was then added to a scintillation tube with 5 ml of scintillation cocktail. Radioactivity was quantified using liquid scintillation counting.
To determine the brain DHA uptake rate, the incorporation coefficient for DHA from the unesterified plasma pool into the brain total lipid pool is ([26]):(Eq. 5) k^*=cbr*(T)/∫0Tcpl*dt where cbr*(T) is the total brain radioactivity at the end of the infusion and ∫0Tcpl*dt is the plasma radioactivity AUC.
Multiplying the incorporation coefficient by the concentration of plasma unesterified DHA (cpl) allows for the determination of the brain DHA uptake rate:(Eq. 6) Jin=k^*cpl

[2] = Text: At 15 weeks postweaning, rats were subjected to surgery to implant a catheter into their jugular vein. The animals were anesthetized using isoflurane inhalation (5% induction, 1–3% maintenance). Before the incision was made, hair was shaved from the incision site and the site was sterilized with iodine and ethanol. A transverse incision was made anterior to the upper thorax. The jugular vein was located by blunt dissection. The vein was isolated and tied off. The vein was then nicked and a catheter (PE 50; Intramedic, Sparks, MD) with a 3.5 cm silastic tubing end (VWR, Mississauga, ON, Canada) was inserted into the vein. The catheter was secured using 3.0 silk sutures and a 16 gauge Angiocath (Becton Dickinson, Mississauga, ON, Canada) was used to guide the catheter subcutaneously to a site outside the body near the scapula. An incision was made at this site and the catheter was tucked beneath the skin at the incision site. The incision site was stapled to protect the catheter from the rats. The incision site on the chest was closed with 4.0 silk sutures and the rats were allowed to recover from the anesthetic under a heat lamp. Approximately 24 h after the surgery, the tail vein of the rats was cannulated with a 24 gauge Angiocath (Becton Dickinson). While the rats were restrained, the staple closing the incision site on the scapula was removed and the jugular vein catheter was connected to a longer polyethylene catheter. The rats were then placed in an infusion box that contained food, a chew toy, and bedding from the rat's cage. The tail vein catheter was then connected to an infusion line. Rats were able to move freely within the infusion box throughout the infusion.
Modified from the method of Rapoport, Igarashi, and Gao ([38]); 4.5 μmol/100 g body weight of ^2H-ALA (^2H14-ALA, purity >95% confirmed by GC-FID and GC-MS; Cayman Chemical, Ann Arbor, MI) was infused into the tail vein for 3 h. To prepare the infusate, a known amount of ^2H-ALA was dissolved in 5 mM HEPES buffer (pH 7.4) containing 50 mg/ml fatty acid-free BSA. The infusate was mixed by sonication at 37°C. An infusion pump (Harvard Apparatus PHD 2000; Holliston, MA) was used to infuse 3.78 ml of tracer solution at a constant rate of 0.021 ml/min for 3 h. Immediately before the infusion and every 30 min during the infusion 0.2 ml of blood was drawn from the jugular vein. The jugular vein catheter was flushed with heparinized saline (5% by volume) after every blood draw to prevent coagulation in the line. After 180 min of the infusion, 1 ml of blood was drawn from the jugular vein and the animals were euthanized with a lethal injection of T-61 into the tail vein. All blood samples were centrifuged for 10 min (PC-100 microcentrifuge; Diamed, ON, Canada) and the plasma was collected and stored at −80°C.
Plasma volume was determined using the method of Schreihofer, Hair, and Stepp as modified by Gao et al.([24], [39]). Briefly, a known amount of Evans Blue dye was injected into the tail veins of the rats. After 15 min, 1 ml of blood was drawn from the jugular vein, twice. The plasma was collected as described above, and 0.1 ml of plasma was diluted into 1 ml of saline. Absorbance at 604 nm was measured with a Nanodrop 1000 and by comparing the absorbance to a standard curve, the concentration of the dye was determined.
Fifty microliters of plasma were added to a test tube which contained known amounts of unesterified 17:0 standard and di-17:0 phosphatidylcholine standard. Lipids were extracted from the plasma using the method of Folch, Lees, and Sloane Stanley ([28]), as described above.
Thin layer chromatography (TLC) was used to separate esterified and unesterified lipids. The TLE was dried under N2 and reconstituted in 250 μl chloroform. TLC plates (TLC silica gel 60, EMD) that were washed in chloroform and methanol (2:1) were activated by heat at 100°C for 1 h.

Structure (SMILES)	Brain DHA uptake rate [1]	Brain DHA uptake rate ([1]; listed as ALA diet)	Mean plasma [^2H-ALA]unesterified during infusion ([2]; 4.5 μmol/100 g ^2H-ALA i.v. over 3 h)	Smax,i (maximum first derivative) ([2]; 15 wk diet, 3 h ^2H-ALA infusion, n = 4)	Daily Secretion Rate (daily DHA synthesis rate) ([2]; 15 wk diet, n = 4)	FDHA (turnover rate of esterified plasma DHA) ([2]; 15 wk diet, n = 4)	Jsyn (synthesis rate of DHA from ALA) ([2]; 15 wk diet, n = 4)	k1,DHA (synthesis-secretion coefficient for DHA synthesis from ALA) ([2]; 15 wk diet, n = 4)	DHA synthesis rate relative to brain DHA uptake rate ([2]; ALA-fed rats, infusion synthesis vs ^14C-DHA uptake)	DHA synthesis rate from ALA (steady-state infusion) ([2]; at 15 weeks postweaning)	Uptake rate of DHA into the brain, DHA-fed relative to ALA-fed rats ([1]; rat, in vivo)	Reduction of DHA synthesis by 2% dietary DHA ([2]; synthesis rate not quantifiable in DHA-fed rats)
CC/C=C\C/C=C\C/C=C\CCCCCCCC(=O)O [ALA, α-linolenic acid]	467.6 ± 93.7 nmol/day	468 nmol/day	2.5 ± 0.5 nmol/mL	0.339 ± 0.135 nmol/min	1452 ± 395 nmol/day	0.0002 ± 4e-05 min⁻¹	1.008 ± 0.274 nmol/min	0.131 ± 0.04 mL/min	approximately 3 fold	1.5 µmol/day		
CC/C=C\C/C=C\C/C=C\C/C=C\C/C=C\C/C=C\CCC(=O)O [DHA, Docosahexaenoic acid]	858.6 ± 74.8 nmol/day										~2 fold	greater than 30 fold
